18 compounds from ChEMBL document CHEMBL5226286, “The application of isatin-based multicomponent-reactions in the quest for new bioactive and druglike molecules” (Eur J Med Chem, 2021) can be followed below.

Structures are written as SMILES. Converted amounts (≈) assume the structure as drawn. The source made the active and inactive calls. No cut-off for these calls is given here.

Usually MIC stands for the lowest concentration that inhibits growth of the organism. The IC50 is the point on the concentration scale where inhibition reaches its midpoint. A low value points to inhibition by little substance.

In assay [1] the test system is Pseudomonas aeruginosa. Put plainly: Antibacterial activity against Pseudomonas aeruginosa by disc diffusion method. In kind it is functional. For orientation: In agar diffusion tests the substance spreads into inoculated agar from a disc or well.
Assay [2] relates to Bacillus subtilis. Put plainly: Antibacterial activity against Bacillus subtilis by disc diffusion method. In kind it is functional.
Assay [3] relates to Escherichia coli. Description: Antibacterial activity against Escherichia coli by disc diffusion method. In kind it is functional.
Another assay has as its system Staphylococcus aureus. Put plainly: Antibacterial activity against Staphylococcus aureus by disc diffusion method. Type of assay: functional.
The subject of assay [4] is Mycobacterium tuberculosis. Put plainly: Antimycobacterial activity against active stage of Mycobacterium tuberculosis H37Ra ATCC 25177 assessed as minimum inhibitory concentration by XTT assay. Type of assay: functional. Background: Tetrazolium dyes change colour on reduction, which living cells bring about.
Assay [5] relates to Mycobacterium tuberculosis. Description: Antimycobacterial activity against dormant stage of Mycobacterium tuberculosis H37Ra ATCC 25177 assessed as minimum inhibitory concentration by XTT assay. In kind it is functional.
The next assay concerns Aspergillus flavus. Put plainly: Antifungal activity against Aspergillus flavus. In kind it is functional.
A further assay concerns Aspergillus niger. Description: Antifungal activity against Aspergillus niger. Type of assay: functional.
A short description of assay [6]: Antioxidant activity assessed as DPPH radical scavenging activity at 1 mg/ml relative to control. In kind it is functional. On the technique in general: The DPPH test is a chemical assay of radical scavenging.
For a further assay, the system named is MCF7. Description: Cytotoxicity against human MCF7 cells. Type of assay: functional, cell-based.
In another assay the test system is MDA-MB-435. Description: Antiproliferative activity against human MDA-MB-435 cells. Type of assay: functional, cell-based.
For a further assay, the system named is A549. Put plainly: Antiproliferative activity against human A549 cells. In kind it is functional, cell-based.
Another assay deals with HepG2. Put plainly: cells. Type of assay: functional, cell-based. The note with it: Homo sapiens.
For assay [7], the system named is Escherichia coli. Put plainly: Antibacterial activity against Escherichia coli incubated for 24 to 48 hrs by agar diffusion well method. As to conditions: time 24-48 hrs. Type of assay: functional.
The next assay concerns Streptococcus pneumoniae. Description: Antibacterial activity against Streptococcus pneumoniae incubated for 24 to 48 hrs by agar diffusion well method. In kind it is functional. As to conditions: time 24-48 hrs.
Another assay concerns Aspergillus fumigatus. Put plainly: Antifungal activity against Aspergillus fumigatus RCMB 02568. In kind it is functional.
The subject of assay [8] is Bacillus subtilis. Put plainly: Antibacterial activity against Bacillus subtilis incubated for 24 to 48 hrs by agar diffusion well method. In kind it is functional. The note with it: time 24-48 hrs.
The subject of another assay is Candida albicans. Put plainly: Antifungal activity against Candida albicans RCMB 05036. In kind it is functional.
The test system of assay [9] is Syncephalastrum racemosum. Description: Antifungal activity against Syncephalastrum racemosum RCMB 05922. In kind it is functional.
The subject of a further assay is Geotrichum candidum. Description: Antifungal activity against Geotrichum candidum RCMB 05097. In kind it is functional.
Assay [10] relates to Pseudomonas aeruginosa. Put plainly: Antibacterial activity against Pseudomonas aeruginosa incubated for 24 to 48 hrs by agar diffusion well method. Type of assay: functional. The note with it: time 24-48 hrs.

Description for HepG2: Antiproliferative activity against human HepG2 cells

Turning to `CC1(C)CC(=O)C2=C(C1)N(c1ccccc1S)C(=O)C21C2=C(Nc3ccccc31)C(=O)CC(C)(C)C2` (stereo unspecified), the MIC against Pseudomonas aeruginosa [1] is 150 µg/mL (≈ 301 µM); with Bacillus subtilis [2], 2.5 µg/mL (≈ 5.01 µM); against Escherichia coli [3], 188 µg/mL (≈ 376 µM); in the assay on Staphylococcus aureus, 225 µg/mL (≈ 451 µM).

Take `CC1(C)CC(=O)C2=C(C1)N(c1ccccn1)C(=O)C21C2=C(Nc3ccccc31)C(=O)CC(C)(C)C2` (stereo unspecified): the MIC entry in the assay with Pseudomonas aeruginosa [1] is “inactive”. Besides, the MIC against Bacillus subtilis [2] turned out to be 50 µg/mL (≈ 107 µM); against Escherichia coli [3] it was 62 µg/mL (≈ 133 µM); against Staphylococcus aureus, 125 µg/mL (≈ 267 µM).

As for `Cc1ccc(Cn2cc(CN3C(=O)C4(C(C#N)=C(N)OC5=C4C(=O)CC(C)(C)C5)c4cc(Br)ccc43)nn2)cc1` (stereo unspecified), the results for the MIC in [4] and in assay [5] were 29.2 µg/mL (≈ 48.8 µM) and 8.89 µg/mL (≈ 14.8 µM), respectively.

For `O=C(c1ccc(F)cc1)C1C(c2ccc(Cl)cc2)C(CO)NC12C(=O)Nc1ccccc12` (stereo unspecified), the minimum inhibitory concentration (MIC) in the assay with Aspergillus flavus and in the assay on Aspergillus niger was 20 µg/mL (≈ 44.4 µM) throughout. Besides, the Activity in assay [6] is 88.1%.

In the assay with MCF7, `CCOC(=O)C1=C(C(=O)OCC)C2(NC1(C(=O)OCC)C(=O)OCC)C(=O)N(C)c1ccc(C)cc12` (stereo unspecified) had an IC50 of 20.8 µM.

`N#CC1=C(N)OC2=C(C(=O)c3ccccc32)C12C(=O)Nc1ccc(Br)cc12` (stereo unspecified): the IC50 in the assay on MDA-MB-435 worked out at 1.8 µM.

On to `CC(C)CC1NC2(C(=O)Nc3ccccc32)C(C(=O)c2ccc(F)cc2)C1c1ccc(Br)cc1` (stereo unspecified), for which the MIC against Aspergillus flavus is 20 µg/mL (≈ 38.4 µM); in the assay on Aspergillus niger, 30 µg/mL (≈ 57.5 µM).

Turning to `N[C@@H](CCC(=O)N[C@@H](CS)C(=O)NCC(=O)O)C(=O)O`, the Activity in [6] stood at 92%.

For the compound `CC1(C)CC(=O)C2=C(C1)N(c1c(Br)cc(Br)cc1Br)C(=O)C21C2=C(Nc3ccccc31)C(=O)CC(C)(C)C2` (stereo unspecified), the MIC turned out to be 50 µg/mL (≈ 71.1 µM) against Pseudomonas aeruginosa [1], 62.5 µg/mL (≈ 88.9 µM) in the assay on Bacillus subtilis [2], 37.5 µg/mL (≈ 53.3 µM) in the assay on Escherichia coli [3] and 100 µg/mL (≈ 142 µM) against Staphylococcus aureus.

For the compound `CC1(C)CC(=O)C2=C(C1)N(c1ccccc1F)C(=O)C21C2=C(Nc3ccccc31)C(=O)CC(C)(C)C2` (stereo unspecified), the MIC was 50 µg/mL (≈ 103 µM) in the assay on Pseudomonas aeruginosa [1], 75 µg/mL (≈ 155 µM) with Bacillus subtilis [2] and 37.5 µg/mL (≈ 77.4 µM) with Escherichia coli [3]. Besides, in the assay on Staphylococcus aureus, the MIC result is “inactive”.

As to `O=C(c1ccc(F)cc1)C1C(c2ccc(Br)cc2)C(CO)NC12C(=O)Nc1ccccc12` (stereo unspecified), the MIC is 30 µg/mL (≈ 60.6 µM) against Aspergillus flavus and 20 µg/mL (≈ 40.4 µM) in the assay with Aspergillus niger. Moreover, in assay [6], the Activity is 87.4%.

The compound `Cc1ccc2c(c1)C1(C(=O)N2)N2CSCC2C(c2ncc[nH]2)C1(C#N)C(=O)c1c[nH]c2ccccc12` (stereo unspecified) registered an IC50 in the assay with A549 of 66.3 µM.

Consider `Cc1cc2c(c(=O)o1)C1(C(=O)N(Cc3cn(Cc4ccc(Cl)cc4)nn3)c3ccc(Cl)cc31)C(C#N)=C(N)O2` (stereo unspecified), for which the MIC was found to be 5.39 µg/mL (≈ 9.6 µM) in assay [4] and 4.81 µg/mL (≈ 8.57 µM) in assay [5].

Consider `CC(C)CC1NC2(C(=O)Nc3ccccc32)C(C(=O)c2ccc(F)cc2)C1c1ccccc1` (stereo unspecified), for which the MIC in the assay with Aspergillus flavus and with Aspergillus niger was 20 µg/mL (≈ 45.2 µM) each time.

Consider `COc1ccc2[nH]cc(C(=O)C3(C#N)C(c4ncc[nH]4)CN(C)C34C(=O)Nc3ccccc34)c2c1` (stereo unspecified), for which, in the assay with A549, the IC50 is 66.3 µM.

In the case of `O=C1C(=O)c2ccccc2C2=C1C1(C(=O)Nc3ccc(F)cc31)N1NN=NC1=N2` (stereo unspecified), 2.9 µM corresponded to half-maximal inhibition in the assay on HepG2 (IC50).

For the compound `CO[C@H]1/C=C/O[C@@]2(C)Oc3c(C)c(O)c4c(O)c(c(/C=N/N5CCN(C)CC5)c(O)c4c3C2=O)NC(=O)/C(C)=C\C=C\[C@H](C)[C@H](O)[C@@H](C)[C@@H](O)[C@@H](C)[C@H](OC(C)=O)[C@@H]1C` [RIFAMPIN], the MIC in assay [4] is 0.51 µg/mL (≈ 0.62 µM); in [5], 0.75 µg/mL (≈ 0.911 µM).

`CCOC(=O)N1C/C(=C\c2ccc(Cl)cc2)C(=O)[C@@]2(C1)[C@H](c1ccc(Cl)cc1)CN(C)[C@]21C(=O)Nc2ccccc21`: the MIC turned out to be 1.95 µg/mL (≈ 3.3 µM) against Escherichia coli [7]; 0.12 µg/mL (≈ 0.203 µM) against Streptococcus pneumoniae; 0.015 µg/mL (≈ 0.0254 µM) against Aspergillus fumigatus; 0.015 µg/mL (≈ 0.0254 µM) in the assay on Bacillus subtilis [8]; 0.06 µg/mL (≈ 0.102 µM) in the assay with Candida albicans; 1.95 µg/mL (≈ 3.3 µM) in assay [9]. The minimal inhibitory concentration (MIC) against Geotrichum candidum turned out to be 0.015 µg/mL (≈ 0.0254 µM); in the assay on Pseudomonas aeruginosa [10], 15.6 µg/mL (≈ 26.5 µM).
